Results as given in US4833138A, “Phenothiazinealkaneamines for treatment of neurotoxic injury” (priority 1987, dated 1989).
Counter-ions that a name gives are not always drawn.

Assays:
[1] = system: KA neurotoxicity in chick embryo retina; assay: NMDA/KA Antagonist Assay, chick embryo retina, KA (25 μM) neurotoxicity; type: cell-based; conditions: 15-day old chick embryo retina, 30 min at 37° C.
Description: (§1) Two agonists were employed in the present test, each at a concentration established previously to be the lowest concentration required to consistently cause a fully-developed retinal lesion: KA (25 μM) and NMA (200 μM). […] Internal controls in each experiment consisted of at least six specimens being incubated with agonist alone. […] The method of tissue preparation was as follows: 15-day old chick embryos were decapitated and their eyes removed and cut into quadrants after excising the cornea and removing the lens, vitreous and iris. The retinal quadrants were then gently separated from the pigment epithelium and incubated for 30 min. at 37° C. in BSS to which an agonist or agonist plus antagonist was added. The BSS contained 140 mM Na^+, 5.0 mM K^+, 0.5 mM Ca^++, 4 5mM Mg^++, 150 mM Cl^-, 5.6 mM glucose and bicarbonate/phosphate buffer (pH 7.3). After incubation for 30 min., the retinal quadrants were fixed by immersion in phosphatebuffered solution containing 1.5% glutaraldehyde and 1% paraformaldehyde, then additionally fixed in 1% osmium tetroxide, dehydrated in graded ethanols, cleared in toluene and embedded in araldite. Sections were cut 1 μM thick on a Sorval ultratome and stained with Methylene blue/Azure 11 for histopathological evaluation by light microscopy.

[2] = system: NMA neurotoxicity in chick embryo retina; assay: NMDA/KA Antagonist Assay, chick embryo retina, NMA (200 μM) neurotoxicity; type: cell-based; conditions: 15-day old chick embryo retina, 30 min at 37° C., n>6
Description: as §1

[3] = system: N-Methylaspartate excitation of spinal neurones; conditions: Berry et al, Eur. J. Pharm. 1983; binding and behavioral data; cited from earlier work
[4] = system: [^3 H]PCP binding sites, rat cerebral cortical membranes; conditions: Goldman et al, FEBS Lett. 1985; cited from earlier work
chick embryo retina [5] = assay: Acute excitotoxic lesion of chick embryo retina by agonist alone; conditions: 1 mM Glu, 30 min in BSS
Description: as §1

[6] = system: N-methyl-D-aspartate receptor; conditions: Wong et al, PNAS 1986; cited from earlier work
chick embryo retina [7] = conditions: chicken, 30 min
Description: as §1

[8] = system: NMDA receptor (N-Methyl-Aspartate excitation of central mammalian neurones); conditions: Anis et al, Br. J. Pharmacol. 1983; cited from earlier work
NMA neurotoxicity = conditions: Olney et al, Neuroscience Letters 1986 for PCP and ketamine; competitive NMA antagonist statement without reference; cited from earlier work

With “10-[2-(diethylamino)ethyl]phenothiazine [ethopropazine]” the “blocking of KA toxicity” value [1] was “not observed” and the “concentration providing total protection against toxicity of NMA” value [2] was 25.0 µM.

For CC1CCCN(C2(c3ccccc3)CCCCC2)C1 (single isomer, unassigned; (+)) [(+)-PCMP, (+)-1-(1-phenylcyclohexyl)-3-methylpiperidine], the “stereoselective effect over isomer counterpart in reducing the excitatory action of NMDA” value [3] is given as “stereoselective effects” and the “inhibition of the specific binding of [^3 H]PCP” value [4] is given as “potent inhibitor”.

With N[C@@H](CCC(=O)O)C(=O)O [Glu, Glutamate] the retinal lesion (chick embryo retina [5]) was “full lesion”.

For C[C@]12N[C@H](Cc3ccccc31)c1ccccc12 [MK-801, (+)-5-methyl-10,11-dihydro-5H-dibenzo[a,d]cyclohepten-5,10-imine maleate)], the “antagonism of the N-methyl-D-aspartate receptor site” value [6] is listed as “potent, selective non-competitive antagonist”.

In the case of CN[C@H](CC(=O)O)C(=O)O [NMA, N-methyl-D-aspartate], the “lowest concentration required to consistently cause a fully-developed retinal lesion” value (chick embryo retina [7]) is reported as 200 µM.

For c1ccc(C2(N3CCCCC3)CCCCC2)cc1 [PCP], the “reduction of excitatory effects of NMDA as compared to KA and QUIS” value [8] is given as “reduce selectively the excitatory effects of NMDA as compared to KA and QUIS” and the “blocking of NMA neurotoxicity” value (NMA neurotoxicity) is given as “Blocking of NMA neurotoxicity”.

In the case of CC1CCC(c2ccccc2)(N2CCCCC2)CC1 (stereo not drawn) [cis-N-(1-phenyl-4-methylcyclohexyl)piperidine], the “stereoselective effect over isomer counterpart in reducing the excitatory action of NMDA” value [3] is listed as “stereoselective effects”.

For CNC1(c2ccccc2Cl)CCCCC1=O (stereo not drawn) [ketamine], the “reduction of excitatory effects of NMDA as compared to KA and QUIS” value [8] is listed as “reduce selectively the excitatory effects of NMDA as compared to KA and QUIS” and the “blocking of NMA neurotoxicity” value (NMA neurotoxicity) is listed as “Blocking of NMA neurotoxicity”.
